Data published in patent publication US9006455B2 (Bristol-Myers Squibb Company, priority 2009, dated 2015).
Like-named read-outs stand apart in the source and are kept apart here.

Test system: HCV 1b genotype
Assay: HCV Replicon assay (HCV 1b genotype)
Assay type: cell-based
Conditions: Hepatitis C virus, HCV 1b genotype replicon
Procedure, shortened: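 Cell-based HCV genotype 1b replicon assay in HCV-neo replicon cells, including replicons carrying NS5A resistance substitutions; luciferase reporter read-outs also used.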

[1] = read-out: Range (EC50 values against HCV 1b)

Compound: COC(=O)N[C@H](C(=O)N1CCOC[C@H]1c1nc(-c2ccc(-c3ccc4cc(-c5c[nH]c([C@@H]6COCCN6C(=O)[C@@H](NC(=O)OC)C6CCOCC6)n5)ccc4c3)cc2)c[nH]1)C1CCOCC1 [Example 116, Methyl((1S)-2-((3R)-3-(4-(4-(6-(2-((3R)-4-((2S)-2-((methoxycarbonyl)amino)-2-(tetrahydro-2H-pyran-4-yl)acetyl)-3-morpholinyl)-1H-imidazol-4-yl)-2-naphthyl)phenyl)-1H-imidazol-2-yl)-4-morpholinyl)-2-oxo-1-(tetrahydro-2H-pyran-4-yl)ethyl)carbamate]
- EC50 [1]: 0.0101 to 1 nM

Compound: COC(=O)N[C@H](C(=O)N1CCCC[C@H]1c1nc(-c2ccc(-c3ccc4cc(-c5c[nH]c([C@@H]6CCCCN6C(=O)[C@@H](NC(=O)OC)C(C)C)n5)ccc4c3)cc2)c[nH]1)C(C)C [Example 118, Methyl((1S)-1-(((2S)-2-(4-(4-(6-(2-((2S)-1-((2S)-2-((methoxycarbonyl)amino)-3-methylbutanoyl)-2-piperidinyl)-1H-imidazol-4-yl)-2-naphthyl)phenyl)-1H-imidazol-2-yl)-1-piperidinyl)carbonyl)-2-methylpropyl)carbamate]
- EC50 (read-out: EC50): 0.0374 nM
- EC50 [1]: 0.0101 to 1 nM

Compound: COC(=O)N[C@H](C(=O)N[C@@H](C)c1ncc(-c2ccc(-c3ccc4cc(-c5cnc([C@H](C)NC(=O)[C@@H](NC(=O)OC)C(C)C)[nH]5)ccc4c3)cc2)[nH]1)C(C)C [Example 124, Methyl((1S)-1-(((1S)-1-(4-(4-(6-(2-((1S)-1-(((2S)-2-((methoxycarbonyl)amino)-3-methylbutanoyl)amino)ethyl)-1H-imidazol-4-yl)-2-naphthyl)phenyl)-1H-imidazol-2-yl)ethyl)carbamoyl)-2-methylpropyl)carbamate]
- EC50 [1]: 0.0101 to 1 nM

Compound: COC(=O)N[C@H](C(=O)N[C@@H](C)c1ncc(-c2ccc(-c3ccc4cc(-c5cnc([C@H](C)NC(=O)[C@@H](NC(=O)OC)C6CCOCC6)[nH]5)ccc4c3)cc2)[nH]1)C1CCOCC1 [Example 125, Methyl((1S)-2-(((1S)-1-(4-(4-(6-(2-((1S)-1-(((2S)-2-((methoxycarbonyl)amino)-2-(tetrahydro-2H-pyran-4-yl)acetyl)amino)ethyl)-1H-imidazol-4-yl)-2-naphthyl)phenyl)-1H-imidazol-2-yl)ethyl)amino)-2-oxo-1-(tetrahydro-2H-pyran-4-yl)ethyl)carbamate]
- EC50 (read-out: EC50): 0.136 nM
- EC50 [1]: 0.0101 to 1 nM

Compound: COC(=O)N[C@H](C(=O)N(C)[C@@H](C)c1ncc(-c2ccc(-c3ccc4cc(-c5cnc([C@H](C)N(C)C(=O)[C@@H](NC(=O)OC)C(C)C)[nH]5)ccc4c3)cc2)[nH]1)C(C)C [Example 126, Methyl((1S)-1-(((1S)-1-(4-(4-(6-(2-((1S)-1-(((2S)-2-((methoxycarbonyl)amino)-3-methylbutanoyl)(methyl)amino)ethyl)-1H-imidazol-4-yl)-2-naphthyl)phenyl)-1H-imidazol-2-yl)ethyl)(methyl)carbamoyl)-2-methylpropyl)carbamate]
- EC50 (read-out: EC50): 0.654 nM
- EC50 [1]: 0.0101 to 1 nM

Compound: COC(=O)N[C@H](C(=O)N1C[C@@H](C)C[C@H]1c1ncc(-c2ccc(-c3ccc4cc(-c5cnc([C@@H]6C[C@H](C)CN6C(=O)[C@@H](NC(=O)OC)C6CCOCC6)[nH]5)ccc4c3)cc2)[nH]1)C1CCOCC1 [Example 129, Methyl(2-((2S,4S)-2-(4-(4-(6-(2-((2S,4S)-1-(((methoxycarbonyl)amino)(tetrahydro-2H-pyran-4-yl)acetyl)-4-methyl-2-pyrrolidinyl)-1H-imidazol-4-yl)-2-naphthyl)phenyl)-1H-imidazol-2-yl)-4-methyl-1-pyrrolidinyl)-2-oxo-1-(tetrahydro-2H-pyran-4-yl)ethyl)carbamate]
- EC50 [1]: 0.0101 to 1 nM

Compound: COC(=O)N[C@H](C(=O)N1[C@H](c2ncc(-c3ccc(-c4ccc5cc(-c6cnc([C@@H]7C[C@@H]8C[C@@H]8N7C(=O)[C@@H](NC(=O)OC)C(C)C)[nH]6)ccc5c4)cc3)[nH]2)C[C@@H]2C[C@@H]21)C(C)C [Example 135, Methyl((1S)-1-(((1S,3S,5S)-3-(4-(4-(6-(2-((1S,3S,5S)-2-((2S)-2-((methoxycarbonyl)amino)-3-methylbutanoyl)-2-azabicyclo[3.1.0]hex-3-yl)-1H-imidazol-4-yl)-2-naphthyl)phenyl)-1H-imidazol-2-yl)-2-azabicyclo[3.1.0]hex-2-yl)carbonyl)-2-methylpropyl)carbamate]
- EC50 [1]: 0.0101 to 1 nM

Compound: CC(C)(C)OC(=O)N1CCC[C@H]1c1nc(-c2ccc3cc(-c4c[nH]c([C@@H]5CCCN5C(=O)OC(C)(C)C)n4)ccc3c2)c[nH]1 [Intermediate 52, (2S,2′S)-tert-Butyl 2,2′-(4,4′-(naphthalene-2,6-diyl)bis(1H-imidazole-4,2-diyl))dipyrrolidine-1-carboxylate]
- EC50 [1]: 1.01 to 1000 nM

Compound: CC(C)(C)OC(=O)N1[C@@H]2C[C@@H]2C[C@H]1c1nc2ccc(-c3ccc4nc(-c5ccc6nc([C@@H]7C[C@H]8C[C@H]8N7C(=O)OC(C)(C)C)[nH]c6c5)ccc4c3)cc2[nH]1 [Intermediate 70, tert-Butyl(1R,3S,5R)-3-(5-(2-(2-((1R,3S,5R)-2-(tert-butoxycarbonyl)-2-azabicyclo[3.1.0]hex-3-yl)-1H-benzimidazol-6-yl)-6-quinolinyl)-1H-benzimidazol-2-yl)-2-azabicyclo[3.1.0]hexane-2-carboxylate]
- EC50 [1]: 1.01 to 1000 nM

Compound: O=C(OCc1ccccc1)N1CCC[C@H]1c1nc2cc(-c3ccc4cc(-c5cnc6[nH]c([C@@H]7CCCN7C(=O)OCc7ccccc7)nc6c5)ccc4c3)cnc2[nH]1 [Intermediate 114, Benzyl(2S)-2-(6-(6-(2-((2S)-1-((benzyloxy)carbonyl)-2-pyrrolidinyl)-1H-imidazo[4,5-b]pyridin-6-yl)-2-naphthyl)-3H-imidazo[4,5-b]pyridin-2-yl)-1-pyrrolidinecarboxylate]
- EC50 [1]: 1.01 to 1000 nM
